Like-named read-outs stand apart in the source and are kept apart here.
Assays:
[1] = test system: NCI-H358 cells (K-Ras G12C); experiment: Potency assay: pERK in NCI-H358 cells; format: cell-based, human
Procedure: The purpose of this assay is to measure the ability of test compounds to inhibit K-Ras in cells. […] This procedure measures a decrease in cellular pERK in response to test compounds.
NCI-H358 cells were grown and maintained using media and procedures recommended by the ATCC. On the day prior to compound addition, cells were plated in 384-well cell culture plates (40 μl/well) and grown overnight in a 37° C., 5% CO2 incubator. Test compounds were prepared in 10, 3-fold dilutions in DMSO, with a high concentration of 10 mM. On the day of assay, 40 nL of test compound was added to each well of cell culture plate using an Echo550 liquid handler (LabCyte®). Concentrations of test compound were tested in duplicate. After compound addition, cells were incubated 4 hours at 37° C., 5% CO2. Following incubation, culture medium was removed and cells were washed once with phosphate buffered saline.
In some experiments, cellular pERK level was determined using the AlphaLISA SureFire Ultra p-ERK1/2 Assay Kit (PerkinElmer). Cells were lysed in 25 μL lysis buffer, with shaking at 600 RPM at room temperature. […] After a 2-hour incubation in the dark, 5 μL donor mix was added, plate was sealed, and incubated 2 hours at room temperature. Signal was read on an Envision plate reader (PerkinElmer) using standard AlphaLISA settings. Analysis of raw data was carried out in Excel (Microsoft) and Prism (GraphPad). Signal was plotted vs. the decadal logarithm of compound concentration, and IC50 was determined by fitting a 4-parameter sigmoidal concentration response model.
In other experiments, cellular pERK was determined by In-Cell Western. […] Fixed cells were washed 4 times for 5 minutes with TBS containing 0.1% Triton X-100 (TBST) and then blocked with 100 μL Odyssey blocking buffer (LI-COR) for 60 minutes at room temperature. […] Cells were washed 4 times for 5 minutes with TBST. Secondary antibody (IR-800CW rabbit, LI-COR, diluted 1:800) and DNA stain DRAQS (LI-COR, diluted 1:2000) were added and incubated 1-2 hours at room temperature. Cells were washed 4 times for 5 minutes with TBST. Plates were scanned on a Li-COR Odyssey CLx Imager. Analysis of raw data was carried out in Excel (Microsoft) and Prism (Graph Pad). Signal was plotted vs. the decadal logarithm of compound concentration, and IC50 was determined by fitting a 4-parameter sigmoidal concentration response model.

KRAS G12D = KRAS G12D (Homo sapiens (Human), UniProt P01116+P62937, G12D); experiment: Ras-Raf (BRAF RBD) disruption / FRET / MOA assay, KRAS G12D; format: biochemical; conditions: Ras-Raf disruption/FRET/MOA assay; class symbols; read-out: KRAS G12D FRET data IC50
Procedure: (§1) The purpose of this biochemical assay is to measure the ability of test compounds to facilitate ternary complex formation between a nucleotide-loaded Ras isoform and cyclophilin A; the resulting ternary complex disrupts binding to a BRAF^RBD construct, inhibiting Ras signaling through a RAF effector.
(§2) Compound is present in plate wells as a 10-point 3-fold dilution series starting at a final concentration of 30 μM. After incubation at 25° C. for 3 hours, a mixture of Anti-His Eu-W1024 and anti-GST allophycocyanin is then added to assay sample wells at final concentrations of 10 nM and 50 nM, respectively, and the reaction incubated for an additional 1.5 hours. […] Compounds that facilitate disruption of a Ras:RAF complex are identified as those eliciting a decrease in the TR-FRET ratio relative to DMSO control wells.
(§3) This protocol may also be executed substituting other Ras proteins or nucleotides.
(§4) The purpose of this biochemical assay was to measure the ability of test compounds to facilitate ternary complex formation between a nucleotide-loaded K-Ras isoform and Cyclophilin A; the resulting ternary complex disrupts binding to a BRAF^RBD construct, inhibiting K-Ras signaling through a RAF effector. Data is reported as IC50 values.
as §2, with “Compound was” for “Compound is”, “allophycocyanin was” for “allophycocyanin is”, “a K-Ras:RAF” for “a Ras:RAF”, “complex were” for “complex are”

KRAS G12S = KRAS G12S (Homo sapiens (Human), UniProt P01116+P62937, G12S); experiment: Ras-Raf (BRAF RBD) disruption / FRET / MOA assay, KRAS G12S; format: biochemical; conditions: Ras-Raf disruption/FRET/MOA assay; class symbols; read-out: KRAS G12S FRET data IC50
Procedure: as §1, §2, §3, §4
as §2, with “Compound was” for “Compound is”, “allophycocyanin was” for “allophycocyanin is”, “a K-Ras:RAF” for “a Ras:RAF”, “complex were” for “complex are”

[2] = H358 KRAS G12C, read-out: pERK EC50
[3] = Homo sapiens, NCI-H358, H358 KRAS G12C, read-out: pERK EC50

KRAS G12S, sequence (P01116-2 other isoform, or with tags, fused parts or gaps G12S): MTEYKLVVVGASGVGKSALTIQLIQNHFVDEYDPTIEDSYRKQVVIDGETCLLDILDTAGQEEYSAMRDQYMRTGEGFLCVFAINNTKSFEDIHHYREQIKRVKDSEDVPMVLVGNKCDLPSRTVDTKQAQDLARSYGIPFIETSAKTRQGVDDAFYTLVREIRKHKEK
KRAS G12S, sequence (P62937 whole entry): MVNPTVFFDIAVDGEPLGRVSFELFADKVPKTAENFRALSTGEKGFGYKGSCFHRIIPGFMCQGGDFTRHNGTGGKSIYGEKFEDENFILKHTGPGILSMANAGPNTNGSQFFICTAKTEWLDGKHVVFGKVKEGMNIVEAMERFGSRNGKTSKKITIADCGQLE
KRAS G12D, sequence (P01116-2 other isoform, or with tags, fused parts or gaps G12D): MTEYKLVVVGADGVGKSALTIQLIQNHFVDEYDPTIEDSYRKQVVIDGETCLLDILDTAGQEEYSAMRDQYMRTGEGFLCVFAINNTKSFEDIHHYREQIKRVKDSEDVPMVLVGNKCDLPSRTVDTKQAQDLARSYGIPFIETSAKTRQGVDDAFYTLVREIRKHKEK
KRAS G12D, sequence (P62937 whole entry, canonical isoform): as the sequence (P62937 whole entry) above

IC50 (KRAS G12D) [µM]	IC50 (KRAS G12S) [µM]	Structure (SMILES)	also measured
> 10	1 to 10	C=CC(=O)N1CC[C@H](C(=O)N(C)[C@H](C(=O)N[C@H]2Cc3cc(O)cc(c3)-c3ccc4c(c3)c(c(-c3cncc(CCN(C)C)c3)n4CC)CC(C)(C)COC(=O)[C@@H]3CCCN(N3)C2=O)C(C)C)C1 [Example A081]	
> 10	> 10	C=CC(=O)N1CC[C@H](C(=O)N(C)[C@H](C(=O)N[C@H]2Cc3cc(O)cc(c3)-c3ccc4c(c3)c(c(-c3ncccc3COC)n4CC)CC(C)(C)COC(=O)[C@@H]3CCCN(N3)C2=O)C(C)C)C1 [Example A084]	
> 10	> 10	C=CC(=O)N1CC[C@H](C(=O)N(C)[C@H](C(=O)N[C@H]2Cc3cc(O)cc(c3)-c3ccc4c(c3)c(c(-c3nccnc3COC)n4CC)CC(C)(C)COC(=O)[C@@H]3CCCN(N3)C2=O)C(C)C)C1 [Example A085]	
> 10	1 to 10	C=CC(=O)N1CC[C@H](C(=O)N(C)[C@H](C(=O)N[C@H]2Cc3cc(O)cc(c3)-c3ccc4c(c3)c(c(-c3cccnc3CN(C)C)n4CC)CC(C)(C)COC(=O)[C@@H]3CCCN(N3)C2=O)C(C)C)C1 [Example A092]	
1 to 10	0.1 to 1	C=CC(=O)N1CC[C@H](C(=O)N(C)[C@H](C(=O)N[C@H]2Cc3cc(O)cc(c3)-c3ccc4c(c3)c(c(-c3cccnc3COC)n4CC#N)CC(C)(C)COC(=O)[C@@H]3CCCN(N3)C2=O)C(C)C)C1 [Example A093]	
> 10	1 to 10	C=CC(=O)N1CC[C@H](C(=O)N(C)[C@H](C(=O)N[C@H]2Cc3cc(O)cc(c3)-c3ccc4c(c3)c(c(-c3cnn(C)c3)n4CC)CC(C)(C)COC(=O)[C@@H]3CCCN(N3)C2=O)C(C)C)C1 [Example A099]	

The remaining lines, values behind:

Structure (SMILES)	IC50 (KRAS G12D) [µM]	IC50 (KRAS G12S) [µM]	also measured
CC#CC(=O)N1CC[C@H](C(=O)N(C)[C@H](C(=O)N[C@H]2Cc3cc(O)cc(c3)-c3ccc4c(c3)c(c(-c3cccnc3[C@H](C)OC)n4CC)CC(C)(C)COC(=O)[C@@H]3CCCN(N3)C2=O)C(C)C)C1 (atropisomer, axis not shown; (M)) [Example A145, (2S)-2-{1-[(3S)-1-(but-2-ynoyl)pyrrolidin-3-yl]-N-methylformamido}-N-[(8S,14S,20M)-22-ethyl-4-hydroxy-21-{2-[(1S)-1-methoxyethyl]pyridin-3-yl}-18,18-dimethyl-9,15-dioxo-16-oxa-10,22,28-triazapentacyclo[18.5.2.1^2,^6.1^10,^14.0^23,^27]nonacosa-1(26),2,4,6(29),20,23(27),24-heptaen-8-yl]-3-methylbutanamide]			EC50 [1, 2]: < 5 µM
C=CC(=O)N1CC[C@H](C(=O)N(C)[C@H](C(=O)N[C@H]2Cc3cc(O)cc(c3)-c3ccc4c(c3)c(c(-c3ccccc3CO)n4CC)CC(C)(C)COC(=O)[C@@H]3CCCN(N3)C2=O)C(C)C)C1 [Example A4]			EC50 [1, 3]: < 5 µM
C=CC(=O)N1CC[C@H](C(=O)N(C)[C@H](C(=O)N[C@H]2Cc3cc(O)cc(c3)-c3ccc4c(c3)c(c(-c3ccccc3CCOC)n4C(C)(C)C#N)CC(C)(C)COC(=O)[C@@H]3CCCN(N3)C2=O)C(C)C)C1 [Example A12]			EC50 [1, 3]: < 5 µM
CCn1c(-c2ccccc2CCOC)c2c3cc(ccc31)-c1cc(O)cc(c1)C[C@H](NC(=O)[C@H](C(C)C)N(C)C(=O)[C@H]1CCN(C(=O)/C=C/CN(C)C)C1)C(=O)N1CCC[C@H](N1)C(=O)OCC(C)(C)C2 [Example A15]			EC50 [1, 3]: < 5 µM
C=CC(=O)N1CC[C@H](C(=O)N(C)[C@H](C(=O)N[C@H]2Cc3cc(OC(=O)CCC(=O)O)cc(c3)-c3ccc4c(c3)c(c(-c3ccccc3CCOC)n4CC)CC(C)(C)COC(=O)[C@@H]3CCCN(N3)C2=O)C(C)C)C1 [Example A32]			EC50 [1, 3]: < 5 µM
C=CC(=O)N1CC[C@H](C(=O)N(C)[C@H](C(=O)N[C@H]2Cc3cc(O)cc(c3)-c3ccc4c(c3)c(c(-c3ccccc3CCOC)n4C(C)(C)C#N)CC(C)(C)COC(=O)[C@@H]3CCCN(N3)C2=O)C(C)C)C1 [Example A34]			EC50 [1, 2]: < 5 µM
C=CC(=O)N1CCN(C(=O)N(C)[C@H](C(=O)N[C@H]2Cc3cc(O)cc(c3)-c3ccc4c(c3)c(c(-c3ccccc3CN(C)C)n4CC)CC(C)(C)COC(=O)[C@@H]3CCCN(N3)C2=O)C(C)C)CC1 [Example A37]			EC50 [1, 3]: < 5 µM
C=CC(=O)N1CC[C@H](C(=O)N(C)[C@H](C(=O)N[C@H]2Cc3cc(O)cc(c3)-c3ccc4c(c3)c(c(-c3ccncc3CCOC)n4CC)CC(C)(C)COC(=O)[C@@H]3CCCN(N3)C2=O)C(C)C)C1 [Example A48]			EC50 [1, 3]: < 5 µM
C=CC(=O)N1CC[C@H](C(=O)N(C)[C@H](C(=O)N[C@H]2Cc3cc(O)cc(c3)-c3ccc4c(c3)c(c(-c3cccnc3)n4C(C)(C)C#N)CC(C)(C)COC(=O)[C@@H]3CCCN(N3)C2=O)C(C)C)C1 [Example A74]			EC50 [1, 2]: < 5 µM
C=CC(=O)N1CC[C@H](C(=O)N(C)[C@H](C(=O)N[C@H]2Cc3cc(O)cc(c3)-c3ccc4c(c3)c(c(-c3cnccc3[C@H](C)OC)n4CC)CC(C)(C)COC(=O)[C@@H]3CCCN(N3)C2=O)C(C)C)C1 [Example A76]			EC50 [1, 2]: < 5 µM
C=CC(=O)N1CC[C@H](C(=O)N(C)[C@H](C(=O)N[C@H]2Cc3cc(OC(=O)N(C)CC(=O)O)cc(c3)-c3ccc4c(c3)c(c(-c3ccccc3CCOC)n4CC)CC(C)(C)COC(=O)[C@@H]3CCCN(N3)C2=O)C(C)C)C1 [Example A78]			EC50 ([1]; Homo sapiens, NCI-H358, read-out: pERK EC50): < 5 µM
C=CC(=O)N1CC[C@H](C(=O)N(C)[C@H](C(=O)N[C@H]2Cc3cc(O)cc(c3)-c3ccc4c(c3)c(c(-c3c(CCOC)cccc3OC)n4CC)CC(C)(C)COC(=O)[C@@H]3CCCN(N3)C2=O)C(C)C)C1 [Example A080]	> 10	> 10	
C=CC(=O)N1CC[C@H](C(=O)N(C)[C@H](C(=O)N[C@H]2Cc3cc(O)cc(c3)-c3ccc4c(c3)c(c(-c3cncc(CCN(C)C)c3)n4CC)CC(C)(C)COC(=O)[C@@H]3CCCN(N3)C2=O)C(C)C)C1 [Example A81]			EC50 [1, 3]: < 5 µM
CCn1c(-c2cnccc2COC)c2c3cc(ccc31)-c1cc(O)cc(c1)C[C@H](NC(=O)[C@H](C(C)C)N(C)C(=O)[C@H]1CCN(C(=O)C#CCN(C)C)C1)C(=O)N1CCC[C@H](N1)C(=O)OCC(C)(C)C2 [Example A088]	1 to 10	0.1 to 1	
C=CC(=O)N1CC[C@H](C(=O)N(C)[C@H](C(=O)N[C@H]2Cc3nc(cs3)-c3ccc4c(c3)c(c(-c3cccnc3COC)n4CC)CC(C)(C)COC(=O)[C@@H]3CCCN(N3)C2=O)C(C)C)C1 [Example A094]	> 10	> 10	
CCn1c(-c2cccnc2COC)c2c3cc(ccc31)-c1cc(O)cc(c1)C[C@H](NC(=O)[C@H](C(C)C)N(C)C(=O)C1CN(C(=O)C#CCN(C)C)C1)C(=O)N1CCC[C@H](N1)C(=O)OCC(C)(C)C2 [Example A097]	1 to 10	0.1 to 1	
C=CC(=O)N1CC[C@H](C(=O)N(C)[C@H](C(=O)N[C@H]2Cc3cc(O)cc(c3)-c3ccc4c(c3)c(c(-c3ccc(C5CCN(C)CC5)nc3)n4CC)CC(C)(C)COC(=O)[C@@H]3CCCN(N3)C2=O)C(C)C)C1 [Example A098]	> 10	1 to 10	
C=CC(=O)N1CC[C@H](C(=O)N(C)[C@H](C(=O)N[C@H]2Cc3cc(O)cc(c3)-c3ccc4c(c3)c(c(-c3ccc(CN5CC[C@@H](O)C5)cc3)n4CC)CC(C)(C)COC(=O)[C@@H]3CCCN(N3)C2=O)C(C)C)C1 [Examples A001]	> 10	1 to 10	
